ChEMBL document CHEMBL3091433, “Structure-based design of substituted hexafluoroisopropanol-arylsulfonamides as modulators of RORc” (Bioorg Med Chem Lett, 2013)

Tests used:
[1] = biological target: T1, Oxysterols receptor LXR-beta (Homo sapiens, UniProt P55055)
T1 sequence (P55055 whole entry): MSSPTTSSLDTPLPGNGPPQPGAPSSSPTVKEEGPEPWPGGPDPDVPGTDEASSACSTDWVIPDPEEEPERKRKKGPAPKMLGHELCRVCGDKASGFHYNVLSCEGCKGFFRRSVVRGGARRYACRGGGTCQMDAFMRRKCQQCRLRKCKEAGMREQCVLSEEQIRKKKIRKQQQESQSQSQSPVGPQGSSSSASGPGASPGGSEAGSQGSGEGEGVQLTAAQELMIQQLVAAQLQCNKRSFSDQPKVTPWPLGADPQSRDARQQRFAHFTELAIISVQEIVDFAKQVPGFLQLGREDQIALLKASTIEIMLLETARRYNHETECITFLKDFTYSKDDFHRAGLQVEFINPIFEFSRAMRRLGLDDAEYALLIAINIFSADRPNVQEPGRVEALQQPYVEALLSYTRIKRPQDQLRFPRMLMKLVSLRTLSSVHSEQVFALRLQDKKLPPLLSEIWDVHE
Description: Agonist activity at GAL4-fused human LXRbeta expressed in HEK293T cells assessed as activation of basal transcriptional activity after 20 hrs by dual-glo luciferase reporter gene assay

[2] = biological target: T2, Nuclear receptor ROR-alpha (Homo sapiens, UniProt P35398); test: Inverse agonist activity at GAL4-fused human RORa expressed in HEK293T cells assessed as suppression of basal transcriptional activity after 20 hrs by dual-glo luciferase reporter gene assay; format: cell-based, HEK-293T
T2 sequence (P35398 whole entry): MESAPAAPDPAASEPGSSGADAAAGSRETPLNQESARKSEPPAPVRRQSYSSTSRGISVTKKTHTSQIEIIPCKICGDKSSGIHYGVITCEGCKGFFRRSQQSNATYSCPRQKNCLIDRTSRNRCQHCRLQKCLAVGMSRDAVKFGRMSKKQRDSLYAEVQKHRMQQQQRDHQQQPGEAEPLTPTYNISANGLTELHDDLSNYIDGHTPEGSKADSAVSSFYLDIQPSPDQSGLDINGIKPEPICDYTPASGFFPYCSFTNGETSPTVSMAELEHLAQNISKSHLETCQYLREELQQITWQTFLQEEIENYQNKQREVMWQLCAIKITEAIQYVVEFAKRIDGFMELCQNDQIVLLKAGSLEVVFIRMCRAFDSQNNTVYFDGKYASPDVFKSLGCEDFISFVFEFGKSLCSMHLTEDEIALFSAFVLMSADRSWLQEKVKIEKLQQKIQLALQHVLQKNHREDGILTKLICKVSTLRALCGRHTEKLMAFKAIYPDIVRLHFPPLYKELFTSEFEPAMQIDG

PBMC [3] = test: cells; conditions: Homo sapiens, 48 h
PBMC [4] = test: Cytotoxicity against human PBMC assessed as effect on cell physiology after 48 hrs by CellTiter-Glo assay
PBMC [5] = test: Antiinflammatory activity in human PBMC assessed as inhibition of IL-17 production after 48 hrs by Sandwich ELISA relative to control; format: functional
PBMC [6] = test: Inhibition of IFNgamma production in human PBMC after 48 hrs by Sandwich ELISA

SMILES | EC50 [1] | EC50 [2] | EC50 (PBMC [3]) | EC50 (PBMC [4]) | Imax (PBMC [5]) | EC50 (PBMC [6])
CCN(c1ccc(C(O)(C(F)(F)F)C(F)(F)F)cc1)S(=O)(=O)c1ccccc1 | 0.246 µM | 5 µM | – | – | – | –
N#Cc1ccc(S(=O)(=O)N(CC(F)(F)F)c2ccc(C(O)(C(F)(F)F)C(F)(F)F)cc2)cc1 | 0.902 µM | 7 µM | 1 µM | > 20 µM | 74% | > 20 µM
O=S(=O)(c1ccc(F)cc1)N(CC(F)(F)F)c1ccc(C(O)(C(F)(F)F)C(F)(F)F)cc1 | 0.385 µM | 6 µM | 0.132 µM | > 20 µM | 83% | > 20 µM
